Laboratory results: patent US20250205384A1, “HEMOSTATIC MATERIAL” (Toray Industries, Inc., priority 2018, published 2025)

Key:
[1] = Solubility in t-butyl alcohol; conditions: in words
[2] = Thickness of lipid membrane from SEM observation image; assay type: physicochemical; conditions: lipid on PLLA fiber sheet, SEM ×5,000 (FIGS. 17 to 20)
Description: The thickness of the lipid membrane is preferably 10 to 1,000 nm, more preferably 30 to 500 nm, and still more preferably 60 to 240 nm. The method of measuring the lipid membrane is as follows. The lipid membrane is observed with a scanning electron microscope (SEM). The thickness of five points optionally selected in the SEM observation image is measured, and the mean is regarded as the thickness of the lipid membrane.
An SEM observation image (×1,000) of the base complex before supporting a lipid is shown in FIG. 9, and SEM observation images (×1,000) of the hemostatic materials E2 to E8 are shown in FIGS. 10 to 16, respectively.

[3] = tested on: guinea pig-derived PRP; experiment: Evaluation of platelet aggregation capacity of hemostatic material (in vitro), protein assay of attached platelets; assay type: cell-based; conditions: lipid supported on base part in place of DHSG lipids
Description: From the hemostatic materials D1, D2, D3 and D4, a base part (fiber sheet part) supporting DHSG, Asp-DHSG, Glu-DHSG and AG-DHSG, respectively, was taken out. To a 12-well plate, the base part (fiber sheet part) that was taken out and 1 mL of guinea pig-derived PRP (2.0×10^5/μL) prepared by the abovementioned method were added. Thereafter, ADP (1 μM, 100 μL) that activates platelets was added, and after allowing to stand at room temperature for 5 minutes, the mixture was washed with 1 mL of DPBS twice. Thereafter, to dissolve platelets attached to the base part (fiber sheet part), 500 μL of 0.5% Triton X was added, followed by allowing to stand at room temperature for 1 hour to obtain a platelet lysate. To a 96-well plate, 10 μL of the platelet lysate prepared by the abovementioned method and 150 μL of Pierce (trademark) 660 nm Protein Assay Kit were added, followed by allowing to stand for 5 minutes. By measuring absorbance at 660 nm using a microplate reader, proteins were quantitatively determined, and the determination results were used as an index of the count of platelets which were not washed away and were attached to the fiber sheet. The results in FIG. 8 are relative values when the platelet count in using the hemostatic material D1 is regarded as 1. […]

CCCCCCCCCCCCCCCC(=O)OCC(COP(=O)(O)O)OC(=O)CCCCCCCCCCCCCCC (stereo not drawn) [Anionic DPPA]
solubility in t-butyl alcohol compared with the DPPA sodium salt [1]: higher solubility in t-butyl alcohol

CCCCCCCCCCCCCCCCOC(=O)CCC(NC(=O)CCC(=O)NC(CCC(=O)O)C(=O)O)C(=O)OCCCCCCCCCCCCCCCC (stereo not drawn) [Glu-DHSG]
thickness of the lipid membrane [2]: 187 nm

CCCCCCCCCCCCCCCCOC(=O)CCC(NC(=O)CCC(=O)O)C(=O)OCCCCCCCCCCCCCCCC [DHSG, 1,5-Dihexadecyl-N-Succinyl-L-Glutamate]
thickness of the lipid membrane [2]: 131 nm

CCCCCCCCCCCCCCCCOC(=O)CCC(NC(=O)CCC(=O)NC(CCC(=O)NC(CC(=O)O)C(=O)O)C(=O)NC(CC(=O)O)C(=O)O)C(=O)OCCCCCCCCCCCCCCCC (stereo not drawn) [AG-DHSG]
thickness of the lipid membrane [2]: 124 nm

CCCCCCCCCCCCCCCC(=O)OC[C@H](COP(=O)([O-])OCC[N+](C)(C)C)OC(=O)CCCCCCCCCCCCCCC [DPPC, 1,2-dipalmitoyl-sn-glycero-3-phosphatidylcholine]
platelets detected on the base part (fiber sheet part) after washing [3]: no platelets were detected

CCCCCCCCCCCCCCCCOC(=O)CCC(NC(=O)CCC(=O)NC(CC(=O)O)C(=O)O)C(=O)OCCCCCCCCCCCCCCCC (stereo not drawn) [Asp-DHSG]
thickness of the lipid membrane [2]: 153 nm
